Series [1] in a line: Compound stability in human liver microsomes. It is filed as in vitro ADME. To be noted: pH 7.4; for half-life at 5 μM: human liver microsomes 0.5 mg protein/mL, compound 5 μM, NADPH, 37° C., read-out: Human T1/2; for CLint scaled at 5 μM: human liver microsomes, in vivo CLint extrapolated. How it is done: Human or rat liver microsomes incubations were conducted in duplicate in polypropylene tubes. The typical incubation mixtures consisted of human or rat liver microsomes (0.5 mg protein/mL), compounds of interest (5 μM) and NADPH (1.0 mM) in a total volume of 200 μL potassium phosphate buffer (PBS, 100 mM, pH 7.4). Compounds were dissolved in DMSO and diluted with PBS such that the final concentration of DMSO was 0.05%. The enzymatic reactions were commenced with the addition of […] after a 3-min preincubation and incubated in a water bath open to the air at 37° C. Reactions were terminated at various time points (0, 5, 10, 15, 30, 60 min) by adding equal volume of ice-cold acetonitrile. The samples were stored at […] until LC/MS/MS assays.
The concentrations of compounds in the incubation mixtures of human or rat liver microsomes were determined by a LC/MS/MS method. The ranges of the linearity in the concentration range were determined for each tested compounds.
A parallel incubation was performed using denatured microsomes as the negative control, and reactions were terminated at various time points (0, 15, 60 min) after incubation at 37° C.
Dextromethorphan (70 μM) was selected as the positive control, and reactions were terminated at various time points (0, 5, 10, 15, 30, 60 min) after incubation at 37° C. Both positive and negative control samples were included in each assay to ensure the integrity of the microsomal incubation system.
The concentrations of compounds in human or rat liver microsome incubations were plotted as a percentage of the relevant zero time point control for each reaction. The in vivo CLint were extrapolated (ref.: Naritomi, Y.; Terashita, S.; Kimura, S.; Suzuki, A.; Kagayama, A.; and Sugiyama, Y.; Prediction of human hepatic clearance from in vivo animal experiments and in vitro metabolic studies with liver microsomes from animals and humans. Drug Metab. Dispos., 2001, 29: 1316-1324).

Another series has as its target T1, FLT3 (h) (Homo sapiens, UniProt P36888).
T1 construct: purchased Millipore UK Ltd (assays run there as a service)
T1 sequence (P36888 27-993): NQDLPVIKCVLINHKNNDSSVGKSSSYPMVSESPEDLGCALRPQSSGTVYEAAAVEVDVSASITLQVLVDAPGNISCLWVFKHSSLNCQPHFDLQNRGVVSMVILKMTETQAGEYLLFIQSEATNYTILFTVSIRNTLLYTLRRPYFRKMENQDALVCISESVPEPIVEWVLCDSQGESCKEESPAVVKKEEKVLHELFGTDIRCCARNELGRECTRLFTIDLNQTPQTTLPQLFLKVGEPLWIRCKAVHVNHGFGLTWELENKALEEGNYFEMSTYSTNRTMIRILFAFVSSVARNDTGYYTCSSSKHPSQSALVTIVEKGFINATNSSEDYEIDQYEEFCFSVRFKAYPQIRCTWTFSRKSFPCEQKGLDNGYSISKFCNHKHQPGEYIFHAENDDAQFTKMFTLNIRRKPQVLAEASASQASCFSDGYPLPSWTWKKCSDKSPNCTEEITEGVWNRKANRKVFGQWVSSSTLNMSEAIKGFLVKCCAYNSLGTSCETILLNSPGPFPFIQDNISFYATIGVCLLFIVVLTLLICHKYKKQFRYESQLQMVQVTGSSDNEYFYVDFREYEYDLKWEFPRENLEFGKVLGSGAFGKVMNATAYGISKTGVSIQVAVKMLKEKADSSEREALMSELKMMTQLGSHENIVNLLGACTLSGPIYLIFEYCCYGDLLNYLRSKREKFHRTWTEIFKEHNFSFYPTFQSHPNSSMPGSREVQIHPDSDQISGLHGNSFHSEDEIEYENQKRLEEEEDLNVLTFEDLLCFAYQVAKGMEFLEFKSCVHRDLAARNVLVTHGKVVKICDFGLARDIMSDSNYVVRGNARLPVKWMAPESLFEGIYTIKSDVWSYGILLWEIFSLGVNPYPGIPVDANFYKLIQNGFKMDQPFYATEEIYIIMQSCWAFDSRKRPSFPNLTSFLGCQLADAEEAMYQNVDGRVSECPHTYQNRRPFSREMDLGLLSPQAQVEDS
The experiment in a line: FLT3 kinase assay. In kind it is biochemical. How it is done:
Kinase assays can be performed by measurement of incorporation of γ-^33P ATP into immobilized myelin basic protein (MBP). High binding white 384 well plates (Greiner) are coated with MBP (Sigma #M-1891) by incubation of 60 μL/well of 20 μg/mL MBP in Tris-buffered saline (TBS; 50 mM Tris pH 8.0, 138 mM NaCl, 2.7 mM KCl) for 24 h at 4° C. Plates are washed 3× with 100 μL TBS. Kinase reactions are carried out in a total volume of 34 μL in kinase buffer (5 mM Hepes pH 7.6, 15 mM NaCl, 0.01% bovine gamma globulin (Sigma #I-5506), 10 mM MgCl2, 1 mM DTT, 0.02% TritonX-100). Compound dilutions are performed in DMSO and added to assay wells to a final DMSO concentration of 1%. Each data point is measured in duplicate, and at least two duplicate assays are performed for each individual compound determination. Enzyme is added to final concentrations of 10 nM or 20 nM, for example. A mixture of unlabeled ATP and γ-^33P ATP is added to start the reaction (2×10^6 cpm of γ-^33P ATP per well (3000 Ci/mmole) and 10 μM unlabeled ATP, typically. The reactions are carried out for 1 h at room temperature with shaking Plates are washed 7× with TBS, followed by the addition of 50 μL/well scintillation fluid (Wallac). Plates are read using a Wallac Trilux counter. This is only one format of such assays; various other formats are possible, as known to one skilled in the art. […]

As to `Cc1c2ccc(Nc3ncc(Cl)c(NC4CC5CN(C(=O)CC#N)CC5C4)n3)cc2nn1C` (stereo not drawn) [Ex. 4, 3-(5-((5-chloro-2-((2,3-dimethyl-2H-indazol-6-yl)amino)pyrimidin-4-yl)amino)hexahydrocyclopenta[c]pyrrol-2(1H)-yl)-3-oxopropanenitrile], in series [1], the half-life at 5 μM came to 14.3 min and the intrinsic metabolic clearance (CLint scaled) at 5 μM is 122 mL/min/kg. This molecule also showed an IC50 at FLT3 (h) of 545 nM.

With `CC(=O)N1CCC2(CCC(Nc3nc(Nc4ccc5c(C)n(C)nc5c4)ncc3Cl)CC2)CC1` [Ex. 7, 1-(9-((5-chloro-2-((2,3-dimethyl-2H-indazol-6-yl)amino)pyrimidin-4-yl)amino)-3-azaspiro[5.5]undecan-3-yl)ethanone], in series [1], the half-life at 5 μM amounted to 42.9 min and the intrinsic clearance (CLint scaled) at 5 μM is 40.5 mL/min/kg. The midpoint of inhibition on FLT3 (h), the IC50, lay at 3 nM.

(Values after patent US9399637B2, “Substituted heteroaryl compounds and methods of use” (Calitor Sciences, LLC, priority 2014, dated 2016).)
